Data published in patent US5905068A, “Retroviral protease inhibiting compounds” (Abbott Laboratories, priority 1996, dated 1999).

Tests used:
HIVIIIB = assay: Antiviral Activity: anti-HIV activity in MT4 cells infected with HIVIIIB (MTT); assay type: cell-based; conditions: Human immunodeficiency virus 1, 120 h, MOI 0.003, 5 days, n=four duplicate determinations
Procedure: (§1) The anti-HIV activity of the compound of the invention was determined in MF4 cells according to the following procedure: MT4 cells were infected with cell-free supernatant of HIVIIIB (previously frozen with known 50% tissue culture infectious dose (TCID50) at 0.003 multiplicity of infection (MOI)) for one hour. After one hour infection, cells were washed twice to remove residual viruses, resuspended in culture media and seeded into 96-well tissue culture plates at 1×10^4 cells per well with various half-log dilutions of compounds. Uninfected cells were included a toxicity and cell controls. RPMI 1640 media (GIBCO) with 10% fetal bovine serum was used as culture media. Various concentrations (50%, 25% and 12.5%) of human serum (SIGMA) were added to culture media resulting in final concentrations of 60%, 35% and 22.5% total serum. All assay plates were incubated in a 37° C. incubator for 5 days. The compound 3-[4,5-dimethylthiozol-2-yl]-2,5-diphenyltetrazolium bromide (MTT, SIGMA, 5 mg .mL stock in PBS) was then added to all wells at 25 μL per well and incubated for 4 hours. SDS (20%) with 0.02N HCl in water was added at 50 μL per well to lyse cells. Plates were incubated overnight for complete cell lysis and then read on a microtiter plate reader at 570/650 nm wavelengths to determine cell optical density (O.D.). Raw data was analysed for percent inhibition by the following formula: [formula]
The 50% effective concentration (EC50) was calculated by the median effect equation (Chou, 1975, Proc. Int. Cong. Pharmacol. 6th p. 619) to determine the efficacy of compound. The 50% cytotoxicity concentration (CTC50) was calculated using uninfected MT4 cells
Under these conditions, the data of Table 2 was obtained (n=four duplicate determinations).

HIV-1 protease = HIV-1 protease (Human immunodeficiency virus type 1 group M subtype B, UniProt P04585); assay: Fluorogenic Assay for Screening Inhibitors of HIV Protease; conditions: pH 4.5
[1] = Cytotoxicity in uninfected MT4 cells (MTT); assay type: cell-based; conditions: human, 5 days, n=four duplicate determinations, read-out: CTC50 (50% cytotoxicity concentration)
Procedure: as §1, with “RPMI 1640 media (GIBCO) with 10% fetal bovine serum was used as culture media. Various concentrations (50%, 25% and 12.5%) of human serum (SIGMA) were added to culture media resulting in final concentrations of 60%, 35% and 22.5% total serum.” left out, “The compound 3-[4,5-dimethylthiozol-2-yl]-2,5-diphenyltetrazolium bromide (MTT, SIGMA, 5 mg .mL stock in PBS) was then added to all wells at 25 μL per well and incubated for 4 hours.” left out
The 50% cytotoxicity concentration (CTC50) was calculated using uninfected MT4 cells

SMILES | EC50 (HIVIIIB) [nM] | inhibition at 0.0005 µM (HIV-1 protease) [%] | inhibition at 0.0011 µM (HIV-1 protease) [%] | CC50 at 120 h [1] [nM]
Cc1cc(N)cc(C)c1OCC(=O)N[C@@H](Cc1ccccc1)C[C@H](O)[C@H](Cc1ccccc1)NC(=O)O[C@@H]1CO[C@@H]2OCC[C@@H]21 [Example 2, (2S,3S,5S)-5-(2,6-Dimethyl-4-amino-phenoxyacetyl)amino-2-((3S,3aR,6aS)-bis-tetrahydrofuran-3-yl-oxycarbonyl)amino-1,6-diphenyl-3-hydroxyhexane] | 170 | 60 |  | 90000
Cc1ccc(N)c(C)c1OCC(=O)N[C@@H](Cc1ccccc1)C[C@H](O)[C@H](Cc1ccccc1)NC(=O)O[C@H]1CO[C@H]2OCC[C@H]21 [Example 16, (2S,3S,5S)-5-(2,6-Dimethyl-3-amino-phenoxyacetyl)amino-2-((3R,3aS,6aR)-bis-tetrahydrofuran-3-yl-oxycarbonyl)amino-1,6-diphenyl-3-hydroxyhexane] | < 32 | 87 |  | > 100000
Cc1cccc(C)c1OCC(=O)N[C@@H](Cc1ccccc1)[C@@H](O)C[C@H](Cc1ccccc1)NC(=O)OC1CCCSC1 (mixture of isomers) [Example 31, (2S,3S,5S)-2-(2,6-Dimethylphenoxyacetyl)amino-5-(3(R,S)-tetrahydrothiopyranyloxycarbonyl)amino-1,6-diphenyl-3-hydroxyhexane] | 1100 | 52 |  | 53300
Cc1cc(F)cc(C)c1OCC(=O)N[C@@H](Cc1ccccc1)C[C@H](O)[C@H](Cc1ccccc1)NC(=O)O[C@H]1CO[C@H]2OCC[C@H]21 [Example 14, (2S,3S,5S)-5-(2,6-Dimethyl-4-fluoro-phenoxyacetyl)amino-2-((3R,3aS,6aR)-bis-tetrahydrofuran-3-yl-oxycarbonyl)amino-1,6-diphenyl-3-hydroxyhexane] | 268 | 69 |  | 64000
Cc1ncnc(C)c1OCC(=O)N[C@@H](Cc1ccccc1)C[C@H](O)[C@H](Cc1ccccc1)NC(=O)O[C@H]1CO[C@H]2OCC[C@H]21 [Example 8, (2S,3S,5S)-5-(4,6-Dimethyl-pyrimidinyl-5-oxyacetyl)amino-2-((3R,3aS,6aR)-bis-tetrahydrofuran-3-yl-oxycarbonyl)amino-1,6-diphenyl-3-hydroxyhexane] | 815 | 56 |  | > 100000
Cc1cccc(C)c1OCC(=O)N[C@@H](Cc1ccccc1)[C@@H](O)C[C@H](Cc1ccccc1)NC(=O)O[C@@H]1CCSC1(C)C [Example 32, (2S,3S,5S)-2-(2,6-Dimethylphenoxyacetyl)amino-5-(3R-2,2-dimethyl-tetrahydrothienyloxycarbonyl)amino-1,6-diphenyl-3-hydroxyhexane] | 1180 | 50 |  | > 100000
Cc1cc(C)c(OCC(=O)N[C@@H](Cc2ccccc2)C[C@H](O)[C@H](Cc2ccccc2)NC(=O)O[C@H]2CO[C@H]3OCC[C@H]32)c(C)c1 [Example 11, (2S,3S,5S)-5-(2,4,6-Trimethyl-phenoxyacetyl)amino-2-((3R,3aS,6aR)-bis-tetrahydrofuran-3-yl-oxycarbonyl)amino-1,6-diphenyl-3-hydroxyhexane] | 205 | 82 |  | 48000

Further lines, with some results ahead:

EC50 (HIVIIIB) [nM] | inhibition at 0.0005 µM (HIV-1 protease) [%] | inhibition at 0.0011 µM (HIV-1 protease) [%] | SMILES | CC50 at 120 h [1] [nM]
120 | 78 |  | O=C(N[C@@H](Cc1ccccc1)[C@@H](O)C[C@H](Cc1ccccc1)NC(=O)c1ccc(O)cc1Cl)O[C@H]1CO[C@H]2OCC[C@H]21 [Example 57, (2S,3S,5S)-5-(2-Chloro-4-hydroxy-benzoyl)amino-2-((3R,3aS,6aR)-bis-tetrahydrofuran-3-yl-oxycarbonyl)amino-1,6-diphenyl-3-hydroxyhexane] | 80900
233 | 65 |  | O=C(N[C@@H](Cc1ccccc1)C[C@H](O)[C@H](Cc1ccccc1)NC(=O)c1ccccc1)O[C@H]1CO[C@H]2OCC[C@H]21 [Example 68, (2S,3S,5S)-2-(Benzoyl)amino-5-((3R,3aS,6aR)-bis-tetrahydrofuran-3-yl-oxycarbonyl)amino-1,6-diphenyl-3-hydroxyhexane] | > 32000
153 | 67 |  | Cc1c(O)cccc1C(=O)N[C@@H](Cc1ccccc1)[C@@H](O)C[C@H](Cc1ccccc1)NC(=O)O[C@H]1CO[C@H]2OCC[C@H]21 [Example 59, (2S,3S,5S)-2-(3-Hydroxy-2-methyl-benzoyl)amino-5-((3R,3aS,6aR)-bis-tetrahydrofuran-3-yl-oxycarbonyl)amino-1,6-diphenyl-3-hydroxyhexane] | > 100000
30 | 66 |  | CC(C)c1nc(COC(=O)N[C@@H](C(=O)N[C@@H](Cc2ccccc2)C[C@H](O)[C@H](Cc2ccccc2)NC(=O)OC2COC3OCCC23)C(C)C)cs1 (stereo partly drawn) [Example 36] | 27800
70 | 80 |  | CC(C)[C@H](NC(=O)OCc1cncs1)C(=O)N[C@@H](Cc1ccccc1)C[C@H](O)[C@H](Cc1ccccc1)NC(=O)O[C@H]1CO[C@H]2OCC[C@H]21 [Example 42, (2S,3S,5S)-5-(N-(N-((5-Thiazolyl)methoxycarbonyl)-L-valinyl)amino)-2-((3R,3aS,6aR)-bis-tetrahydrofuran-3-yl-oxycarbonyl)amino-1,6-diphenyl-3-hydroxyhexane] | > 100000
11 | 80 |  | CC(C)c1nc(CN(C)C(=O)N[C@H](C(=O)N[C@@H](Cc2ccccc2)C[C@H](O)[C@H](Cc2ccccc2)NC(=O)O[C@@H]2CO[C@@H]3OCC[C@@H]32)C(C)C)cs1 [Example 48, (2S,3S,5S)-5-(N-(N-((N-Methyl-N-((2-isopropyl-4-thiazolyl)methyl)amino)carbonyl)-L-valinyl)amino)-2-((3S,3aR,6aS)-bis-tetrahydrofuran-3-yl-oxycarbonyl)amino-1,6-diphenyl-3-hydroxyhexane] | 46600
72 | 69 |  | Cc1nc(CN(C)C(=O)N[C@H](C(=O)N[C@@H](Cc2ccccc2)C[C@H](O)[C@H](Cc2ccccc2)NC(=O)OC2COC3OCCC23)C(C)C)cs1 (stereo partly drawn) [Example 52, (2S,3S,5S)-5-(N-(N-((N-Methyl-N-((2-methyl-4-thiazolyl)methyl)amino)carbonyl)-L-valinyl)amino)-2-((3R,3aS,6aR),(3S,3aR,6aS)-bis-tetrahydrofuran-3-yl-oxycarbonyl)amino-1,6-diphenyl-3-hydroxyhexane] | > 100000
2610 |  | 50 | O=C(N[C@@H](Cc1ccccc1)[C@@H](O)C[C@H](Cc1ccccc1)NC(=O)c1cccc(O)c1)O[C@@H]1CO[C@@H]2OCC[C@@H]21 [Example 58, (2S,3S,5S)-5-(3-Hydroxy-benzoyl)amino-2-((3S,3aR,6aS)-bis-tetrahydrofuran-3-yl-oxycarbonyl)amino-1,6-diphenyl-3-hydroxyhexane] | > 100000
11 | 82 |  | O=C(N[C@@H](Cc1ccccc1)[C@@H](O)C[C@H](Cc1ccccc1)NC(=O)c1ccc(O)cc1)O[C@H]1CO[C@H]2OCC[C@H]21 [Example 55, (2S,3S,5S)-5-(4-Hydroxy-benzoyl)amino-2-((3R,3aS,6aR)-bis-tetrahydrofuran-3-yl-oxycarbonyl)amino-1,6-diphenyl-3-hydroxyhexane] | 49500
55 | 82 |  | Cc1nc(CN(C)C(=O)N[C@H](C(=O)N[C@@H](Cc2ccccc2)C[C@H](O)[C@H](Cc2ccccc2)NC(=O)O[C@@H]2CO[C@@H]3OCC[C@@H]32)C(C)C)cs1 [Example 47, (2S,3S,5S)-5-(N-(N-((N-Methyl-N-((2-methyl-4-thiazolyl)methyl)amino)carbonyl)-L-valinyl)amino)-2-((3S,3aR,6aS)-bis-tetrahydrofuran-3-yl-oxycarbonyl)amino-1,6-diphenyl-3-hydroxyhexane] | > 100000
